{"source": "patent US9549932B2", "about": "“2-(morpholin-4-yl)-1,7-naphthyridines” (BAYER PHARMA AKTIENGESELLSCHAFT, priority 2014, dated 2017)"}
{"target": "full-length human ATR protein (Homo sapiens (Human), UniProt Q13535)", "sequence (Q13535 other isoform, or with tags, fused parts or gaps)": "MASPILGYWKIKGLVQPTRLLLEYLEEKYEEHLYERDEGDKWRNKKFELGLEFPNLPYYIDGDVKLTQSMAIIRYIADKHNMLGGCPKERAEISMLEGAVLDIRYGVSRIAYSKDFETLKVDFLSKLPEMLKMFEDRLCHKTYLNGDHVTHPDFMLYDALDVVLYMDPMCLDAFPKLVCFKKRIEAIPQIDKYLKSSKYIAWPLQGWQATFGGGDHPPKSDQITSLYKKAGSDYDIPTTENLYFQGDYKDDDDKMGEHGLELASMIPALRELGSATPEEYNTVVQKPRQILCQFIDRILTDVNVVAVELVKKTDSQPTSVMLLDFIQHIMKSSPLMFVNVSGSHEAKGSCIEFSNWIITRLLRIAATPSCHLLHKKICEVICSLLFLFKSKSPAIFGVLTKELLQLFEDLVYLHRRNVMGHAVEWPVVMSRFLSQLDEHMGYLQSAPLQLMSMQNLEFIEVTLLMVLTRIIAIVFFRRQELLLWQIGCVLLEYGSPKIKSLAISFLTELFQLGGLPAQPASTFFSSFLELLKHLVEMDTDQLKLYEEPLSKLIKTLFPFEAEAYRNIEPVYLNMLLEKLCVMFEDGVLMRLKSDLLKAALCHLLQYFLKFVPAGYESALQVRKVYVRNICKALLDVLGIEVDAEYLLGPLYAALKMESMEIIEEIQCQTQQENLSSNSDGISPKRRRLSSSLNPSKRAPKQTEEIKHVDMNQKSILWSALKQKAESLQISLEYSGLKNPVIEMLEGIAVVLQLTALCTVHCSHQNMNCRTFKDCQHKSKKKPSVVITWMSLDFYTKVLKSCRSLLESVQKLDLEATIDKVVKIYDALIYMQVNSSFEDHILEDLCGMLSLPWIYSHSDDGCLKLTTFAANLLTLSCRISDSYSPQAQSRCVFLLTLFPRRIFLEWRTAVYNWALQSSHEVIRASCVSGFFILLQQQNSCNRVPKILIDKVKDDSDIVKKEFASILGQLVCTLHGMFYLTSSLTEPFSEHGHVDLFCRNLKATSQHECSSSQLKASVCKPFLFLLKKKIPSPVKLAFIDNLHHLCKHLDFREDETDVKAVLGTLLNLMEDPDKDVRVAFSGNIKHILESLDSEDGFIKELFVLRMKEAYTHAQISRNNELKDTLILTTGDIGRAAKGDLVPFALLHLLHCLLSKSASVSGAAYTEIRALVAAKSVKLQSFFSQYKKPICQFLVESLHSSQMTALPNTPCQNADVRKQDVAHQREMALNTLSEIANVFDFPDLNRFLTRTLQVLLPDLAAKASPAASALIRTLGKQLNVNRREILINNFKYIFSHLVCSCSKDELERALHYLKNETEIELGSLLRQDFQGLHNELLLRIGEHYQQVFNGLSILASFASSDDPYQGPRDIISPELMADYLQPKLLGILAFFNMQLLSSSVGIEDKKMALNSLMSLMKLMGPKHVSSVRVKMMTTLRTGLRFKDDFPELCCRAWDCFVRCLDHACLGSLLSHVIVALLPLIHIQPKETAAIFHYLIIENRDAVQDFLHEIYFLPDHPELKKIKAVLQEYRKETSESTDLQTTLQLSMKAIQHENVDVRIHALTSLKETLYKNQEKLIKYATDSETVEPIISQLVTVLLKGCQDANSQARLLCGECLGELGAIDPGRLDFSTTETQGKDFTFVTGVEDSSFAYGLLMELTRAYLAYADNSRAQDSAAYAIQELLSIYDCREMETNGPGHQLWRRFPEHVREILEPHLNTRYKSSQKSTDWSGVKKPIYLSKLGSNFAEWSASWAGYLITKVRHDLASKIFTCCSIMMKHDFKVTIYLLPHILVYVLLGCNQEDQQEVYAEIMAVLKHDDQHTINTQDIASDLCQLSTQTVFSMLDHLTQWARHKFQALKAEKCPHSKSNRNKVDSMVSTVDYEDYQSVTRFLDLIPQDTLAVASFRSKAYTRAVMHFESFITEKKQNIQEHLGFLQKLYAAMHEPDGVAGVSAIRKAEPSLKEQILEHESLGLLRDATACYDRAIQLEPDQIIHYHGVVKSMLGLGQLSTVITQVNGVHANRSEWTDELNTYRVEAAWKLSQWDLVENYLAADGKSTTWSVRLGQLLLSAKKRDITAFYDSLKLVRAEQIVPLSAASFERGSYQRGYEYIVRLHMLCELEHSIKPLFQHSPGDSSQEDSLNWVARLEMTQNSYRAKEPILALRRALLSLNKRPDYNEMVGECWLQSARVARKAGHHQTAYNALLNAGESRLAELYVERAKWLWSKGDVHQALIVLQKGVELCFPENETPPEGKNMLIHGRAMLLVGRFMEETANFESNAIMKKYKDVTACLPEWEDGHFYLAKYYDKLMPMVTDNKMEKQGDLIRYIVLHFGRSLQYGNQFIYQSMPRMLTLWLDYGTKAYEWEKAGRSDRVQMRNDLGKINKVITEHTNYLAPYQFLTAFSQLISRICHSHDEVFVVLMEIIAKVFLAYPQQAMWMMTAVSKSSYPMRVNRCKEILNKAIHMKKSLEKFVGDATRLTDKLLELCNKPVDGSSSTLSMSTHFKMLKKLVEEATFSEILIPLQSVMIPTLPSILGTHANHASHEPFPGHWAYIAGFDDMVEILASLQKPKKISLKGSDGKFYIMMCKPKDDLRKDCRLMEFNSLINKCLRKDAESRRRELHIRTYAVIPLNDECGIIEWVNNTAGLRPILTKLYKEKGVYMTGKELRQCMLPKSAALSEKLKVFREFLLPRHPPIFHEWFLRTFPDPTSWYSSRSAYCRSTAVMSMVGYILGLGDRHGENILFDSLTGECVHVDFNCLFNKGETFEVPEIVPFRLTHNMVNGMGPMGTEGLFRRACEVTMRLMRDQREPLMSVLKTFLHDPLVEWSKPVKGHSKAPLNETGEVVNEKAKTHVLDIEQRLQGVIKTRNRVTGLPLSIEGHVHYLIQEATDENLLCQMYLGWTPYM", "sequence (Q8WXE1 other isoform, or with tags, fused parts or gaps partner)": "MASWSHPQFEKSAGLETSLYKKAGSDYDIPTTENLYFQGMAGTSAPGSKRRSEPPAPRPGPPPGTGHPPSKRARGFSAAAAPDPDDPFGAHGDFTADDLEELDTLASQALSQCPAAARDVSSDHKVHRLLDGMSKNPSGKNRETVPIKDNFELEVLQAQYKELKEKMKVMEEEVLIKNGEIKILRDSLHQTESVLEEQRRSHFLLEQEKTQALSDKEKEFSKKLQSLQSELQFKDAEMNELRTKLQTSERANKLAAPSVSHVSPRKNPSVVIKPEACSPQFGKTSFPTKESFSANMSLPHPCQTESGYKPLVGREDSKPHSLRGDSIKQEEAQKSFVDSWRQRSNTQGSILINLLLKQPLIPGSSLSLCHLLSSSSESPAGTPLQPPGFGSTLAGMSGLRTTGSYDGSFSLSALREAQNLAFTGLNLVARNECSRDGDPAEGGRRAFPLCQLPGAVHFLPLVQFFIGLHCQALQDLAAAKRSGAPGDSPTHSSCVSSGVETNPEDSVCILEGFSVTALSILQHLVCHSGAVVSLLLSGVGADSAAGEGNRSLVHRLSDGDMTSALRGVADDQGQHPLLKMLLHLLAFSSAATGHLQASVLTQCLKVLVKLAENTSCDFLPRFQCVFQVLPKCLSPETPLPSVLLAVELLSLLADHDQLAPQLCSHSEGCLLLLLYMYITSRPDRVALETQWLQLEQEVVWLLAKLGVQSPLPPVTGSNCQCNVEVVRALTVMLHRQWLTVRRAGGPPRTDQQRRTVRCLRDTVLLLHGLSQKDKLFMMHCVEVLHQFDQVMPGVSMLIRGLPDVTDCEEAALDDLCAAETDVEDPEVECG", "experiment": "Binding assay ATR (TR-FRET tracer displacement)", "conditions": "tracer A, TR-FRET; read-out: ATR binding (tracer A) IC50", "summary_of_the_method": "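Full-length human GST-ATR co-purified with ATRIP, pre-complexed 30 min at 22 °C with anti-GST-Tb antibody, then pre-bound with compound 10 min. Tracer A or B added (2 µl of 100 nM solution), 30 min at 22 °C.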", "units": {"IC50": "µM"}}
{"smiles": "COc1cccc(-c2cc(N3CCOCC3)nc3c(-c4ccn[nH]4)nccc23)c1F", "note": "[Example 317, 4-(2-fluoro-3-methoxyphenyl)-2-(morpholin-4-yl)-8-(1H-pyrazol-5-yl)-1,7-naphthyridine]", "IC50": 0.0665}
{"smiles": "Cc1ccccc1-c1cc(N2CCOCC2)nc2c(-c3ccn[nH]3)nccc12", "note": "[Example 318, 4-(2-methylphenyl)-2-(morpholin-4-yl)-8-(1H-pyrazol-5-yl)-1,7-naphthyridine]", "IC50": 0.0306}
{"smiles": "COc1cccc(-c2cc(N3CCOCC3)nc3c(-c4ccn[nH]4)nccc23)c1OC", "note": "[Example 319, 4-(2,3-dimethoxyphenyl)-2-(morpholin-4-yl)-8-(1H-pyrazol-5-yl)-1,7-naphthyridine]", "IC50": 0.325}
{"smiles": "CN(C)c1ccccc1-c1cc(N2CCOCC2)nc2c(-c3ccn[nH]3)nccc12", "note": "[Example 321, N,N-dimethyl-2-[2-(morpholin-4-yl)-8-(1H-pyrazol-5-yl)-1,7-naphthyridin-4-yl]aniline]", "IC50": 0.0444}
{"smiles": "CS(=O)(=O)Nc1ccccc1-c1cc(N2CCOCC2)nc2c(-c3ccn[nH]3)nccc12", "note": "[Example 322, N-{2-[2-(morpholin-4-yl)-8-(1H-pyrazol-5-yl)-1,7-naphthyridin-4-yl]phenyl}methanesulfonamide]", "IC50": 0.0809}
{"smiles": "CN(C)C(=O)c1ccc(-c2cc(N3CCOCC3)nc3c(-c4ccn[nH]4)nccc23)cc1", "note": "[Example 324, N,N-dimethyl-4-[2-(morpholin-4-yl)-8-(1H-pyrazol-5-yl)-1,7-naphthyridin-4-yl]benzamide]", "IC50": 0.0777}
{"smiles": "C/C=C/c1cc(N2CCOCC2)nc2c(-c3ccn[nH]3)nccc12", "note": "[Example 325, 2-(morpholin-4-yl)-4-[(1E)-prop-1-en-1-yl]-8-(1H-pyrazol-5-yl)-1,7-naphthyridine]", "IC50": 0.0344}
{"smiles": "Oc1ccc(-c2cc(N3CCOCC3)nc3c(-c4ccn[nH]4)nccc23)cc1", "note": "[Example 326, 4-[2-(morpholin-4-yl)-8-(1H-pyrazol-5-yl)-1,7-naphthyridin-4-yl]phenol]", "IC50": 0.0732}
{"smiles": "Fc1ccccc1-c1cc(N2CCOCC2)nc2c(-c3ccn[nH]3)nccc12", "note": "[Example 327, 4-(2-fluorophenyl)-2-(morpholin-4-yl)-8-(1H-pyrazol-5-yl)-1,7-naphthyridine]", "IC50": 0.0177}
{"smiles": "O=C(c1cccc(-c2cc(N3CCOCC3)nc3c(-c4ccn[nH]4)nccc23)c1)N1CCCCC1", "note": "[Example 328, {3-[2-(morpholin-4-yl)-8-(1H-pyrazol-5-yl)-1,7-naphthyridin-4-yl]phenyl}(piperidin-1-yl)methanone]", "IC50": 0.296}
{"smiles": "CC(C)c1ccc(-c2cc(N3CCOCC3)nc3c(-c4ccn[nH]4)nccc23)cc1", "note": "[Example 329, 2-(morpholin-4-yl)-4-[4-(propan-2-yl)phenyl]-8-(1H-pyrazol-5-yl)-1,7-naphthyridine]", "IC50": 0.169}
{"smiles": "O=C(NC1CC1)c1cccc(-c2cc(N3CCOCC3)nc3c(-c4ccn[nH]4)nccc23)c1", "note": "[Example 330, N-cyclopropyl-3-[2-(morpholin-4-yl)-8-(1H-pyrazol-5-yl)-1,7-naphthyridin-4-yl]benzamide]", "IC50": 0.0913}
{"smiles": "c1ccc(-c2ccc(-c3cc(N4CCOCC4)nc4c(-c5ccn[nH]5)nccc34)cc2)cc1", "note": "[Example 331, 4-(biphenyl-4-yl)-2-(morpholin-4-yl)-8-(1H-pyrazol-5-yl)-1,7-naphthyridine]", "IC50": 0.376}
{"smiles": "COc1ccc(-c2cc(N3CCOCC3)nc3c(-c4ccn[nH]4)nccc23)c(OC)c1", "note": "[Example 332, 4-(2,4-dimethoxyphenyl)-2-(morpholin-4-yl)-8-(1H-pyrazol-5-yl)-1,7-naphthyridine]", "IC50": 0.0681}
{"smiles": "Clc1ccccc1-c1cc(N2CCOCC2)nc2c(-c3ccn[nH]3)nccc12", "note": "[Example 333, 4-(2-chlorophenyl)-2-(morpholin-4-yl)-8-(1H-pyrazol-5-yl)-1,7-naphthyridine]", "IC50": 0.0253}
{"smiles": "Cc1ccc(C)c(-c2cc(N3CCOCC3)nc3c(-c4ccn[nH]4)nccc23)c1", "note": "[Example 334, 4-(2,5-dimethylphenyl)-2-(morpholin-4-yl)-8-(1H-pyrazol-5-yl)-1,7-naphthyridine]", "IC50": 0.0581}
{"smiles": "Nc1cccc(-c2cc(N3CCOCC3)nc3c(-c4ccn[nH]4)nccc23)c1", "note": "[Example 335, 3-[2-(morpholin-4-yl)-8-(1H-pyrazol-5-yl)-1,7-naphthyridin-4-yl]aniline]", "IC50": 0.0662}
{"smiles": "Oc1cccc(-c2cc(N3CCOCC3)nc3c(-c4ccn[nH]4)nccc23)c1", "note": "[Example 337, 3-[2-(morpholin-4-yl)-8-(1H-pyrazol-5-yl)-1,7-naphthyridin-4-yl]phenol]", "IC50": 0.0284}
{"smiles": "COc1ccc(F)c(-c2cc(N3CCOCC3)nc3c(-c4ccn[nH]4)nccc23)c1", "note": "[Example 338, 4-(2-fluoro-5-methoxyphenyl)-2-(morpholin-4-yl)-8-(1H-pyrazol-5-yl)-1,7-naphthyridine]", "IC50": 0.103}
{"smiles": "COc1ccc(F)cc1-c1cc(N2CCOCC2)nc2c(-c3ccn[nH]3)nccc12", "note": "[Example 339, 4-(5-fluoro-2-methoxyphenyl)-2-(morpholin-4-yl)-8-(1H-pyrazol-5-yl)-1,7-naphthyridine]", "IC50": 0.0896}
{"smiles": "Fc1ccc(-c2cc(N3CCOCC3)nc3c(-c4ccn[nH]4)nccc23)c(F)c1", "note": "[Example 340, 4-(2,4-difluorophenyl)-2-(morpholin-4-yl)-8-(1H-pyrazol-5-yl)-1,7-naphthyridine]", "IC50": 0.0335}
{"smiles": "Fc1cccc(-c2cc(N3CCOCC3)nc3c(-c4ccn[nH]4)nccc23)c1F", "note": "[Example 341, 4-(2,3-difluorophenyl)-2-(morpholin-4-yl)-8-(1H-pyrazol-5-yl)-1,7-naphthyridine]", "IC50": 0.0264}
{"smiles": "COc1cccc(OC)c1-c1cc(N2CCOCC2)nc2c(-c3ccn[nH]3)nccc12", "note": "[Example 342, 4-(2,6-dimethoxyphenyl)-2-(morpholin-4-yl)-8-(1H-pyrazol-5-yl)-1,7-naphthyridine]", "IC50": 2.77}
{"smiles": "Nc1ccccc1-c1cc(N2CCOCC2)nc2c(-c3ccn[nH]3)nccc12", "note": "[Example 343, 2-[2-(morpholin-4-yl)-8-(1H-pyrazol-5-yl)-1,7-naphthyridin-4-yl]aniline]", "IC50": 0.0198}
{"smiles": "Clc1cc(Cl)cc(-c2cc(N3CCOCC3)nc3c(-c4ccn[nH]4)nccc23)c1", "note": "[Example 344, 4-(3,5-dichlorophenyl)-2-(morpholin-4-yl)-8-(1H-pyrazol-5-yl)-1,7-naphthyridine]", "IC50": 0.174}
{"smiles": "c1ccc(-c2ccccc2-c2cc(N3CCOCC3)nc3c(-c4ccn[nH]4)nccc23)cc1", "note": "[Example 345, 4-(biphenyl-2-yl)-2-(morpholin-4-yl)-8-(1H-pyrazol-5-yl)-1,7-naphthyridine]", "IC50": 0.0556}
{"smiles": "c1ccc2sc(-c3cc(N4CCOCC4)nc4c(-c5ccn[nH]5)nccc34)cc2c1", "note": "[Example 347, 4-(1-benzothiophen-2-yl)-2-(morpholin-4-yl)-8-(1H-pyrazol-5-yl)-1,7-naphthyridine]", "IC50": 0.241}
{"smiles": "Cn1nccc1-c1cc(N2CCOCC2)nc2c(-c3ccn[nH]3)nccc12", "note": "[Example 348, 4-(1-methyl-1H-pyrazol-5-yl)-2-(morpholin-4-yl)-8-(1H-pyrazol-5-yl)-1,7-naphthyridine]", "IC50": 0.0553}
{"smiles": "c1cc(-c2cc(N3CCOCC3)nc3c(-c4ccn[nH]4)nccc23)c2cccnc2c1", "note": "[Example 349, 2-(morpholin-4-yl)-8-(1H-pyrazol-5-yl)-4-(quinolin-5-yl)-1,7-naphthyridine]", "IC50": 0.119}
{"smiles": "c1cncc(-c2cc(N3CCOCC3)nc3c(-c4ccn[nH]4)nccc23)c1", "note": "[Example 350, 2-(morpholin-4-yl)-8-(1H-pyrazol-5-yl)-4-(pyridin-3-yl)-1,7-naphthyridine]", "IC50": 0.162}
{"smiles": "COc1cc(-c2cc(N3CCOCC3)nc3c(-c4ccn[nH]4)nccc23)ccn1", "note": "[Example 351, 4-(2-methoxypyridin-4-yl)-2-(morpholin-4-yl)-8-(1H-pyrazol-5-yl)-1,7-naphthyridine]", "IC50": 0.154}
{"smiles": "Cc1cncc(-c2cc(N3CCOCC3)nc3c(-c4ccn[nH]4)nccc23)c1", "note": "[Example 352, 4-(5-methylpyridin-3-yl)-2-(morpholin-4-yl)-8-(1H-pyrazol-5-yl)-1,7-naphthyridine]", "IC50": 0.175}
{"smiles": "COc1cncc(-c2cc(N3CCOCC3)nc3c(-c4ccn[nH]4)nccc23)c1", "note": "[Example 353, 4-(5-methoxypyridin-3-yl)-2-(morpholin-4-yl)-8-(1H-pyrazol-5-yl)-1,7-naphthyridine]", "IC50": 0.242}
{"smiles": "c1ccc2ncc(-c3cc(N4CCOCC4)nc4c(-c5ccn[nH]5)nccc34)cc2c1", "note": "[Example 354, 2-(morpholin-4-yl)-8-(1H-pyrazol-5-yl)-4-(quinolin-3-yl)-1,7-naphthyridine]", "IC50": 0.0847}
{"smiles": "O=S(=O)(c1ccccc1)n1c(-c2cc(N3CCOCC3)nc3c(-c4ccn[nH]4)nccc23)cc2ccccc21", "note": "[Example 355, 2-(morpholin-4-yl)-4-[1-(phenylsulfonyl)-1H-indol-2-yl]-8-(1H-pyrazol-5-yl)-1,7-naphthyridine]", "IC50": 0.484}
{"smiles": "OCc1ccc(-c2cc(N3CCOCC3)nc3c(-c4ccn[nH]4)nccc23)s1", "note": "[Example 358, {5-[2-(morpholin-4-yl)-8-(1H-pyrazol-5-yl)-1,7-naphthyridin-4-yl]thiophen-2-yl}methanol]", "IC50": 0.0464}
{"smiles": "Fc1ncccc1-c1cc(N2CCOCC2)nc2c(-c3ccn[nH]3)nccc12", "note": "[Example 359, 4-(2-fluoropyridin-3-yl)-2-(morpholin-4-yl)-8-(1H-pyrazol-5-yl)-1,7-naphthyridine]", "IC50": 0.0855}
{"smiles": "Fc1ccc(-c2cc(N3CCOCC3)nc3c(-c4ccn[nH]4)nccc23)cn1", "note": "[Example 360, 4-(6-fluoropyridin-3-yl)-2-(morpholin-4-yl)-8-(1H-pyrazol-5-yl)-1,7-naphthyridine]", "IC50": 0.0938}
{"smiles": "COc1ncccc1-c1cc(N2CCOCC2)nc2c(-c3ccn[nH]3)nccc12", "note": "[Example 362, 4-(2-methoxypyridin-3-yl)-2-(morpholin-4-yl)-8-(1H-pyrazol-5-yl)-1,7-naphthyridine]", "IC50": 0.295}
{"smiles": "c1ccc2c(-c3cc(N4CCOCC4)nc4c(-c5ccn[nH]5)nccc34)cncc2c1", "note": "[Example 363, 4-(isoquinolin-4-yl)-2-(morpholin-4-yl)-8-(1H-pyrazol-5-yl)-1,7-naphthyridine]", "IC50": 0.191}
